In patent US20250262201A1, “COMPOUNDS AND METHODS USEFUL FOR STABILIZING PHENYLALANINE HYDROXYLASE MUTATIONS” (Agios Pharmaceuticals, Inc., priority 2022, published 2025):

The compounds below were run against T1, human PAH with the R408W mutation (Homo sapiens, UniProt P00439, R408W) (assay: Cell Based Phenylalanine Flux Assay). Conditions: A375 cells expressing human R408W PAH; 24 hrs compound incubation; 13C-Tyrosine by LC-MS; average where tested multiple times; read-out: AC50.
T1 construct: expressed in transfected cells
T1 sequence (P00439 1-452 R408W): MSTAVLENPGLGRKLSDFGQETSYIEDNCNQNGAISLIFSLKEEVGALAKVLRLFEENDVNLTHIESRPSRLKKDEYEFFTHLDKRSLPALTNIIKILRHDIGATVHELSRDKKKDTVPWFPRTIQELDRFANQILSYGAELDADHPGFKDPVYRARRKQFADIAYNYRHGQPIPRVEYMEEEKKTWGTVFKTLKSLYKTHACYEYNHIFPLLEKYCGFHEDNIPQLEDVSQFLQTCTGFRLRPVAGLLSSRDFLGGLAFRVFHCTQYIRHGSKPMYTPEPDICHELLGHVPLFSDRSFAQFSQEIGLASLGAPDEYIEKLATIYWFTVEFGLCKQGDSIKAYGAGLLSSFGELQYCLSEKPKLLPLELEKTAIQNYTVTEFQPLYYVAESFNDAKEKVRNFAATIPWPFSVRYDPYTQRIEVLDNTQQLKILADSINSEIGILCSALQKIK
For O=C(CC1CC(F)C1)N1CCc2[nH]cnc2[C@H]1c1cn2ccccc2n1 (stereo partly drawn) [Example 254, (R)-2-(3-fluorocyclobutyl)-1-(4-(imidazo[1,2-a]pyridin-2-yl)-6,7-dihydro-1H-imidazo[4,5-c]pyridin-5(4H)-yl)ethanone], the AC50 was < 500 nM. O=C(c1oc(-c2ccccn2)nc1C(F)(F)F)N1CCc2[nH]cnc2[C@H]1c1cn2ccccc2n1 [Example 256, (R)-(4-(imidazo[1,2-a]pyridin-2-yl)-6,7-dihydro-1H-imidazo[4,5-c]pyridin-5(4H)-yl)(2-(pyridin-2-yl)-4-(trifluoromethyl)oxazol-5-yl)methanone] was tested, and the AC50 was < 500 nM. For O=C(CCc1nccs1)N1CCc2[nH]cnc2[C@H]1c1ncc2ccccc2n1 [Example 273, (S)-1-(4-(quinazolin-2-yl)-6,7-dihydro-1H-imidazo[4,5-c]pyridin-5(4H)-yl)-3-(thiazol-2-yl)propan-1-one], the AC50 was < 500 nM. O=C(CCc1nccs1)N1CCc2[nH]cnc2[C@@H]1c1ncc2ccccc2n1 [Example 274, (R)-1-(4-(quinazolin-2-yl)-6,7-dihydro-1H-imidazo[4,5-c]pyridin-5(4H)-yl)-3-(thiazol-2-yl)propan-1-one] was tested, and the AC50 was > 5000 nM. With Cn1nc(C(F)F)nc1C(=O)N1CCc2[nH]cnc2[C@H]1c1ncc2ccccc2n1 [Example 276, (S)-(3-(difluoromethyl)-1-methyl-1H-1,2,4-triazol-5-yl)(4-(quinazolin-2-yl)-6,7-dihydro-1H-imidazo[4,5-c]pyridin-5(4H)-yl)methanone] the AC50 was < 500 nM. In the case of O=C(c1oc(-c2ccc(C(F)(F)F)cn2)nc1C(F)F)N1CCc2[nH]cnc2[C@H]1c1ncc2ccccc2n1 [Example 278, (S)-(4-(difluoromethyl)-2-(5-(trifluoromethyl)pyridin-2-yl)oxazol-5-yl)(4-(quinazolin-2-yl)-6,7-dihydro-1H-imidazo[4,5-c]pyridin-5(4H)-yl)methanone], the AC50 was < 500 nM. With O=C(c1oc(N2CCC(F)CC2)nc1C(F)F)N1CCc2[nH]cnc2[C@H]1c1ncc2ccccc2n1 [Example 280, (S)-(4-(difluoromethyl)-2-(4-fluoropiperidin-1-yl)oxazol-5-yl)(4-(quinazolin-2-yl)-6,7-dihydro-1H-imidazo[4,5-c]pyridin-5(4H)-yl)methanone] the AC50 was < 500 nM. Work on Cn1cncc1-c1nc(C(F)F)c(C(=O)N2CCc3[nH]cnc3[C@@H]2c2ncc3ccccc3n2)o1 [Example 281, (R)-(4-(difluoromethyl)-2-(1-methyl-1H-imidazol-5-yl)oxazol-5-yl)(4-(quinazolin-2-yl)-6,7-dihydro-1H-imidazo[4,5-c]pyridin-5(4H)-yl)methanone] yielded an AC50 of 500 to 1000 nM. For O=C(c1cnco1)N1CCc2[nH]cnc2[C@H]1c1ccc2ccccc2c1 [Example 283, (R)-(4-(naphthalen-2-yl)-6,7-dihydro-1H-imidazo[4,5-c]pyridin-5(4H)-yl)(oxazol-5-yl)methanone], the AC50 was 500 to 1000 nM. For O=C(c1cnc(-c2ccccn2)s1)N1CCc2[nH]cnc2[C@H]1c1cc2ccccc2cn1 [Example 300, (R)-(4-(isoquinolin-3-yl)-6,7-dihydro-1H-imidazo[4,5-c]pyridin-5(4H)-yl)(2-(pyridin-2-yl)thiazol-5-yl)methanone], the AC50 was < 500 nM. For O=C(c1cnc(-c2ccccn2)s1)N1CCc2[nH]cnc2[C@@H]1c1cc2ccccc2cn1 [Example 301, (S)-(4-(isoquinolin-3-yl)-6,7-dihydro-1H-imidazo[4,5-c]pyridin-5(4H)-yl)(2-(pyridin-2-yl)thiazol-5-yl)methanone], the AC50 was > 5000 nM. With Cn1cc(-c2ncc(C(=O)N3CCc4[nH]cnc4[C@H]3c3cc4ccccc4cn3)s2)cn1 [Example 302, (R)-(4-(isoquinolin-3-yl)-6,7-dihydro-1H-imidazo[4,5-c]pyridin-5(4H)-yl)(2-(1-methyl-1H-pyrazol-4-yl)thiazol-5-yl)methanone] the AC50 was < 500 nM. Cn1cc(-c2ncc(C(=O)N3CCc4[nH]cnc4[C@@H]3c3cc4ccccc4cn3)s2)cn1 [Example 303, (S)-(4-(isoquinolin-3-yl)-6,7-dihydro-1H-imidazo[4,5-c]pyridin-5(4H)-yl)(2-(1-methyl-1H-pyrazol-4-yl)thiazol-5-yl)methanone] was tested, and the AC50 was > 5000 nM. With O=C(c1cnc(-c2cnn(CC(F)(F)F)c2)o1)N1CCc2[nH]cnc2[C@@H]1c1cc2ccccc2cn1 [Example 304, (S)-(4-(isoquinolin-3-yl)-6,7-dihydro-1H-imidazo[4,5-c]pyridin-5(4H)-yl)(2-(1-(2,2,2-trifluoroethyl)-1H-pyrazol-4-yl)oxazol-5-yl)methanone] the AC50 was > 5000 nM. O=C(c1cnc(-c2cnn(CC(F)(F)F)c2)o1)N1CCc2[nH]cnc2[C@H]1c1cc2ccccc2cn1 [Example 305, (R)-(4-(isoquinolin-3-yl)-6,7-dihydro-1H-imidazo[4,5-c]pyridin-5(4H)-yl)(2-(1-(2,2,2-trifluoroethyl)-1H-pyrazol-4-yl)oxazol-5-yl)methanone] was tested, and the AC50 was < 500 nM. With O=C(c1cnc(-c2cnn(CC(F)(F)F)c2)s1)N1CCc2[nH]cnc2[C@H]1c1cc2ccccc2cn1 [Example 306, (R)-(4-(isoquinolin-3-yl)-6,7-dihydro-1H-imidazo[4,5-c]pyridin-5(4H)-yl)(2-(1-(2,2,2-trifluoroethyl)-1H-pyrazol-4-yl)thiazol-5-yl)methanone] the AC50 was 500 to 1000 nM. O=C(c1cnc(-c2cnn(CC(F)(F)F)c2)s1)N1CCc2[nH]cnc2[C@@H]1c1cc2ccccc2cn1 [Example 307, (S)-(4-(isoquinolin-3-yl)-6,7-dihydro-1H-imidazo[4,5-c]pyridin-5(4H)-yl)(2-(1-(2,2,2-trifluoroethyl)-1H-pyrazol-4-yl)thiazol-5-yl)methanone] was tested, and the AC50 was > 5000 nM. With O=C(c1cnc(-c2ccccn2)o1)N1CCc2[nH]cnc2[C@H]1c1cc2ccccc2cn1 [Example 308, (R)-(4-(isoquinolin-3-yl)-6,7-dihydro-1H-imidazo[4,5-c]pyridin-5(4H)-yl)(2-(pyridin-2-yl)oxazol-5-yl)methanone] the AC50 was < 500 nM. O=C(c1cnc(-c2ccccn2)o1)N1CCc2[nH]cnc2[C@@H]1c1cc2ccccc2cn1 [Example 309, (S)-(4-(isoquinolin-3-yl)-6,7-dihydro-1H-imidazo[4,5-c]pyridin-5(4H)-yl)(2-(pyridin-2-yl)oxazol-5-yl)methanone] was tested, and the AC50 was > 5000 nM. With Cn1cc(-c2ncc(C(=O)N3CCc4[nH]cnc4[C@H]3c3cc4ccccc4cn3)o2)cn1 [Example 311, (R)-(4-(isoquinolin-3-yl)-6,7-dihydro-1H-imidazo[4,5-c]pyridin-5(4H)-yl)(2-(1-methyl-1H-pyrazol-4-yl)oxazol-5-yl)methanone] the AC50 was < 500 nM. With O=C(c1cnc(-c2ccc(F)cn2)s1)N1CCc2[nH]cnc2[C@@H]1c1cc2ccccc2cn1 [Example 313, (S)-(2-(5-fluoropyridin-2-yl)thiazol-5-yl)(4-(isoquinolin-3-yl)-6,7-dihydro-1H-imidazo[4,5-c]pyridin-5(4H)-yl)methanone] the AC50 was 1000 to 5000 nM. In the case of COCc1ccc2c(C(=O)N3CCc4[nH]cnc4[C@H]3c3cc4ccccc4cn3)cnn2c1 [Example 314, (R)-(4-(isoquinolin-3-yl)-6,7-dihydro-1H-imidazo[4,5-c]pyridin-5(4H)-yl)(6-(methoxymethyl)pyrazolo[1,5-a]pyridin-3-yl)methanone], the AC50 was < 500 nM. COCc1ccc2c(C(=O)N3CCc4[nH]cnc4[C@@H]3c3cc4ccccc4cn3)cnn2c1 [Example 315, (S)-(4-(isoquinolin-3-yl)-6,7-dihydro-1H-imidazo[4,5-c]pyridin-5(4H)-yl)(6-(methoxymethyl)pyrazolo[1,5-a]pyridin-3-yl)methanone] was tested, and the AC50 was > 5000 nM. With CC(C)(C)c1ncc(C(=O)N2CCc3[nH]cnc3[C@H]2c2cc3ccccc3cn2)s1 [Example 316, (R)-(2-(tert-butyl)thiazol-5-yl)(4-(isoquinolin-3-yl)-6,7-dihydro-1H-imidazo[4,5-c]pyridin-5(4H)-yl)methanone] the AC50 was < 500 nM. For CC(C)(C)c1ncc(C(=O)N2CCc3[nH]cnc3[C@@H]2c2cc3ccccc3cn2)s1 [Example 317, (S)-(2-(tert-butyl)thiazol-5-yl)(4-(isoquinolin-3-yl)-6,7-dihydro-1H-imidazo[4,5-c]pyridin-5(4H)-yl)methanone], the AC50 was > 5000 nM. With Cc1nnc(C(=O)N2CCc3[nH]cnc3[C@H]2c2cc3ccccc3cn2)o1 [Example 318, (R)-(4-(isoquinolin-3-yl)-6,7-dihydro-1H-imidazo[4,5-c]pyridin-5(4H)-yl)(5-methyl-1,3,4-oxadiazol-2-yl)methanone] the AC50 was < 500 nM. Cc1nnc(C(=O)N2CCc3[nH]cnc3[C@@H]2c2cc3ccccc3cn2)o1 [Example 319, (S)-(4-(isoquinolin-3-yl)-6,7-dihydro-1H-imidazo[4,5-c]pyridin-5(4H)-yl)(5-methyl-1,3,4-oxadiazol-2-yl)methanone] was tested, and the AC50 was > 5000 nM. With O=C(c1cnco1)N1CCc2[nH]cnc2[C@H]1c1cc2ccccc2cn1 [Example 320, (R)-(4-(isoquinolin-3-yl)-6,7-dihydro-1H-imidazo[4,5-c]pyridin-5(4H)-yl)(oxazol-5-yl)methanone] the AC50 was < 500 nM. O=C(c1cnco1)N1CCc2[nH]cnc2[C@@H]1c1cc2ccccc2cn1 [Example 321, (S)-(4-(isoquinolin-3-yl)-6,7-dihydro-1H-imidazo[4,5-c]pyridin-5(4H)-yl)(oxazol-5-yl)methanone] showed an AC50 of 1000 to 5000 nM. Cn1cc(-c2nnc(C(=O)N3CCc4[nH]cnc4[C@H]3c3cc4ccccc4cn3)o2)cn1 [Example 322, (R)-(4-(isoquinolin-3-yl)-6,7-dihydro-1H-imidazo[4,5-c]pyridin-5(4H)-yl)(5-(1-methyl-1H-pyrazol-4-yl)-1,3,4-oxadiazol-2-yl)methanone] was tested, and the AC50 was < 500 nM.
